Test results from patent US20070219159A1, “CYCLODEXTRIN COMPOSITIONS AND METHODS OF TREATING VIRAL INFECTIONS” (priority 2002, published 2007).
Converted amounts (≈) assume the structure as drawn. Where two headings read alike, the source gives them in different places.

Experiments:
Vero cells [1] = test: Cell viability by LDH release assay; format: cell-based; settings: 48 hours
Method: FIG. 3 depicts the effects of ACV alone (400 μg/ml) and β-CD alone (8 mg/ml) on the viability of Vero cells as monitored by the LDH release assay after 24 hours of treatments (A); and after 48 hours of treatments (B). All data represents means+SD of two separate experiments.
Cell viability assay. Cell viability was determined fluorometrically by estimating the release of LDH into the media (Moran and Schnellman, 1996). LDH activity was based on the reduction of pyruvate to lactate. The concomitant oxidation of NADH results in a decrease in the fluorescence emission at 450 nm with excitation wavelength 355 nm, and the rate of disappearance of NADH is indicative of LDH activity.
To study the effects of formulations on viability of preformed monolayers, 3 to 4×10^6 Vero cells were added to 1× MEM-5% FBS in T75 flasks. […] Used media were replaced with 15 ml of treatment media, containing 5× MEM-FBS diluted to 1× with water (control), acyclovir stock (400 μg/ml), or β-CD stock (8 mg/ml in water). […]
Reaction solution was made fresh for each experiment by mixing 0.4 ml of 16.2 mM pyruvate with 10 ml of 0.2 mM NADH in phosphate buffer (pH 7.5). […] The amount of LDH calculated for either condition was then compared with and expressed as a percentage of the total LDH present.
Used media were replaced with 15 ml/flask or 2.5 ml/well of treatment media, containing 5× MEM-FBS diluted to 1× with water (control), and […]CD stock. […] Live cells are distinguished by the presence of intracellular esterase activity, as determined by the enzymatic conversion of calcein-AM (nonfluorescent) to calcein (green fluorescence). EthD-1 enters cells with damaged cell membranes and binds to nucleic acids producing red fluorescence to identify dead cells. […] For LDH assays, cells were trypsinized, resuspended in fresh 1× medium, kept at 37° C.-5% CO2 atmosphere, and total LDH present in cells and medium was determined after lysing the cells with 350 μM digitonin. The amount of LDH calculated for either condition was then compared with and expressed as a percentage of the total LDH present. […]

HSV-1 strain KOS1.1 = format: cell-based; settings: for yield of cell-free and cell-associated virus: 24 hours post-infection, MOI 50, BCD 7.2 mg/ml, ACV 400 μg/ml or both, pre, during and post infection treatment (FIG. 1)
HSV-2 strain MS = test: CPE reduction assay in Vero cells, HSV-2; format: cell-based
HCV = test: In vitro anti-HCV assay in HCV RNA-replicating cell line AVA5; format: cell-based; settings: HCV
Method: The antiviral activity of test compounds were assayed in the stably HCV RNA-replicating cell line. AVA5, derived by transfection of the human hepatoblastoma cell line, Huh^7 (Blight et al., 2000). Experimental drugs were added to dividing cultures once daily for three days. Media was changed with each addition of compound. Cultures generally started the assays at 50% confluence and reached confluence during the last day of treatment. HCV RNA and cellular β-actin RNA levels were assessed 24 hours after the last dose of compound using dot blot hybridization. Assays were conducted using a single dose of test compound (in triplicate cultures).
Both HCV and β-actin RNA levels in the treated cultures were expressed as a percentage of the mean levels of RNA detected in untreated cultures. β-actin RNA levels were used both as a measure of toxicity, and to normalize the amount of cellular RNA in each sample. A level of 30% or less HCV RNA (relative to control cultures) was considered to be a positive antiviral effect, and a level of 50% or less β-actin RNA (relative to control cultures) is considered to be a cytotoxic effect.
Dividing cultures of AVAB cells were treated once daily for three days (media was changed with each addition of compound) with 4 concentrations of test compounds (3 cultures per concentration). A total of 6 untreated control cultures, and triplicate cultures treated with 10, 3, and 1 IU/ml α-interferon (active antiviral with no cytotoxicity), and 100, 10, and 1 μM ribavir ([…]) served as controls. HCV RNA and cellular β-actin FNA levels were assessed 24 hours after the last dose of compound using dot blot hybridization. β-actin RNA levels were used to normalize the amount of cellular RNA in each sample.
Toxicity analyses were performed on separate plates from those used for the antiviral assays. Cells for the toxicity analyses were cultured and treated with test compounds with the same schedule and under identical culture conditions used for the antiviral evaluations. Each compound was tested at 4 concentrations, each in triplicate cultures. Uptake of neutral red dye was used to determine the relative level of toxicity 24 hours following the last treatment. The absorbance of internalized dye at […] (A510) was used for the quantitative analysis. Values in test cultures were compared to 9 cultures of untreated cells maintained on the same plate as the test cultures.
Assays similar to those described above were conducted.

Vero cells [2] = settings: 48 hours
Aqueous solubility = format: physicochemical
HSV-1 = HSV-1 plaque formation / IC50 study in Vero cells; format: cell-based; settings: for Plaques ± Std. Dev.: HSV-1 plaques per well, 48 hours
[3] = Human alphaherpesvirus 1, Vero, read-out: % of control ± SEM

OC[C@H]1O[C@@H]2O[C@H]3[C@H](O)[C@@H](O)[C@@H](O[C@H]4[C@H](O)[C@@H](O)[C@@H](O[C@H]5[C@H](O)[C@@H](O)[C@@H](O[C@H]6[C@H](O)[C@@H](O)[C@@H](O[C@H]7[C@H](O)[C@@H](O)[C@@H](O[C@H]8[C@H](O)[C@@H](O)[C@@H](O[C@H]1[C@H](O)[C@H]2O)O[C@@H]8CO)O[C@@H]7CO)O[C@@H]6CO)O[C@@H]5CO)O[C@@H]4CO)O[C@@H]3CO [BCD, β-cyclodextrin]
cell viability (LDH assay) (Vero cells [1]; 8.0 mg/ml BCD): 68.57% | decrease in cell viability (Vero cells [1]; β-CD 8 mg/ml, Vero cells): 30-40% | reduction of KOS1.1 virus yield at 24 hours (HSV-1 strain KOS1.1; 6.4 mg/ml BCD, MOI 10, post-infection treatment): approximately 10^3 fold | yield of cell-free and cell-associated virus (HSV-1 strain KOS1.1): more effective at reducing virus numbers than ACV alone | yield of cell-free and cell-associated virus (HSV-1 strain KOS1.1; listed as β-CD): reduced to a greater extent by β-CD than by a fairly high concentration of acyclovir | effect on yield of acyclovir-sensitive HSV KOS1.1 (FIG. 2) (HSV-1 strain KOS1.1; MOI 10, 20 μM ACV or 6.4 mg/ml β-CD for 24 hours): lowered the yield | protection of Vero cells by inhibition of viral CPE (HSV-2 strain MS; HSV-2, MOI 0.001 and 0.1, BCD 7-8 mg/ml): almost complete protection | inhibition of infection, direct microscopy and crystal violet staining (HSV-2 strain MS; HSV-2, MOI 2.0): inhibited infection | anti-herpes effects at high multiplicity of infection (HSV-2 strain MS; HSV-2, MOI >50, BCD 7-8 mg/ml): exhibited anti-herpes effects | S.I. for HCV (HCV): 1.13 | cell viability (normalized to control cells) (Vero cells [2]; 5.5 mg/ml BCD): 91.23% | cell viability (normalized to control cells) (Vero cells [2]; 7.2 mg/ml BCD): 84.89% | cytotoxicity (Vero cells [2]; maximum concentration of BCD): < 15% | solubility (Aqueous solubility; read-out: concentration at which solubility becomes a limiting issue): > 8000 µg/mL | solubility (Aqueous solubility; water, read-out: concentrations at which insoluble in water): > 10000 µg/mL | Plaques ± Std. Dev. (HSV-1; BCD 3.5 mg/ml): 119.0 ± 1.0 | Plaques ± Std. Dev. (HSV-1; BCD 4.0 mg/ml): 111.0 ± 6.6 | Plaques ± Std. Dev. (HSV-1; BCD 4.5 mg/ml): 84.0 ± 10.53 | Plaques ± Std. Dev. (HSV-1; BCD 5.0 mg/ml): 74.67 ± 4.51 | Plaques ± Std. Dev. (HSV-1; BCD 5.5 mg/ml): 54.67 ± 5.68 | Plaques ± Std. Dev. (HSV-1; BCD 6.0 mg/ml): <10 | IC50 (HSV-1; Human alphaherpesvirus 1, Vero, 48 h): 5100 µg/mL (≈ 4.49 mM) | activity at 3500 µg/mL (HSV-1; [3]): 85.2 ± 0.58% | activity at 4000 µg/mL (HSV-1; [3]): 79.5 ± 3.8% | activity at 4500 µg/mL (HSV-1; [3]): 60.1 ± 6.08% | activity at 5000 µg/mL (HSV-1; [3]): 53.5 ± 2.6% | activity at 5500 µg/mL (HSV-1; [3]): 39.1 ± 3.28%
